{"source": "paper PMC7522027", "about": "(Disease Models & Mechanisms, 2020)", "key": {"caALK5": {"molecular_target": "T1, caALK5 (Homo sapiens, UniProt P36897, T204D)", "T1 construct": "expressed in transfected cells; host or cells: HEK 293T", "T1 sequence (P36897 34-503 T204D)": "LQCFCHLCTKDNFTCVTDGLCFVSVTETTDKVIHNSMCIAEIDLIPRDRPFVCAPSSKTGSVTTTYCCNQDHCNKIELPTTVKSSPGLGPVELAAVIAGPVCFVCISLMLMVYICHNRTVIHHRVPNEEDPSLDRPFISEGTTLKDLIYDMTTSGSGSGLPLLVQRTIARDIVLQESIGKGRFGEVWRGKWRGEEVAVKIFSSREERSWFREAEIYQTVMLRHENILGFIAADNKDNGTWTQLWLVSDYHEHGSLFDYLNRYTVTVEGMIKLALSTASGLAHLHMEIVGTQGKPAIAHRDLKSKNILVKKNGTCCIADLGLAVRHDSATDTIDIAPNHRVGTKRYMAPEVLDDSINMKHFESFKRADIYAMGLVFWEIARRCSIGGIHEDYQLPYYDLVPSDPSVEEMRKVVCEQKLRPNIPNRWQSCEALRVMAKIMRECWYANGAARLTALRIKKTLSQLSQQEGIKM", "assay": "caALK5-induced SMAD phosphorylation in HEK 293T cells", "format": "cell-based", "conditions": "1, 5, 10 µM", "source_text": "HepG2 or HEK 293T cells were lysed in Laemmli sample buffer. Proteins were separated by sodium dodecyl sulfate polyacrylamide gel electrophoresis (SDS-PAGE) and transferred onto […] polyvinylidene difluoride (PVDF) membrane (IPVH00010, Merck Millipore). Membranes were blocked using 5% non-fat dry milk in Tris-buffered saline with 0.1% Tween 20 (655204, Merck Millipore) and probed with the respective primary and secondary antibodies. The signal was detected using Clarity™ Western ECL Substrate (1705060, Bio-Rad) and ChemiDoc Imaging System (17001402, Bio-Rad). The antibodies used for immunoblotting were raised against the following proteins: phospho-SMAD1/5/8 ([Persson et al., 1998]; 1:1000), SMAD1 (Cell Signaling Technology, #6944; 1:1000), GAPDH (Merck Millipore, #G8795; 1:5000) and hemagglutinin (HA; Roche, #12CA5; 1:1000).\nFor experiments with the caALK type I receptor constructs, HEK 293T cells were seeded in 24-well plates at ∼90% confluency and transfected with the DNA expression constructs in the presence of PEI. Thirty hours after transfection, the cells were added to serum-starved medium and treated with compounds for 16 h (overnight). Subsequently, the cells were washed with PBS and lysed in Laemmli sample buffer. […]"}, "zebrafish embryos": {"test_system": "zebrafish embryos", "assay": "in situ hybridization with krox20/myod probes in treated zebrafish embryos", "format": "in vivo, zebrafish (Danio rerio)", "conditions": "750 nM from 6 hpf, fixed at 12 hpf", "description": "Embryos were treated from approximately 6 hpf until 12 hpf when they were fixed in 4% paraformaldehyde overnight. In situ hybridization was performed using krox20 and myod anti-sense RNA probes as described elsewhere ([Thisse and Thisse, 2008])."}, "caAlk2": {"test_system": "caAlk2", "assay": "rescue of caAlk2 mRNA-induced developmental defects in zebrafish embryos", "format": "in vivo", "conditions": "examined at 48 hpf", "description": "The pCS2+ plasmid encoding caAlk2 with a glutamine to aspartic acid substitution at position 204 was kindly donated by Jeroen Bakkers ([Smith et al., 2009]). The DNA sequences of the inserts in plasmid constructs were verified. Both plasmids were digested with NotI and mRNA was generated with SP6 RNA polymerase using a mMessage mMachine kit (Ambion). The mRNA was purified through phenol/isoamylalcohol/chloroform extraction. Zebrafish embryos were injected into the yolk at the one-cell stage with ∼1 nl of either 50 ng/µl GFP mRNA or a cocktail containing 10 ng/µl caAlk2 and 50 ng/µl GFP mRNA. […] Next, embryos were selected for fluorescence at 24 hpf and examined at 48 hpf. The phenotypes were categorized into three groups: no head; head, no eyes; head and eyes. Finally, the bar graph was generated using Prism 8.3.0 for Windows (GraphPad, San Diego, CA, USA). The presented data are a combination of two repeats of the experiment."}, "ACV-R1B (ALK4)": {"molecular_target": "T2, ACV-R1B (ALK4) (Homo sapiens, UniProt P36896)", "T2 construct": "purchased ProQinase GmbH (Freiburg, Germany); host or cells: bacteria (so in the source)", "T2 sequence (P36896 24-505)": "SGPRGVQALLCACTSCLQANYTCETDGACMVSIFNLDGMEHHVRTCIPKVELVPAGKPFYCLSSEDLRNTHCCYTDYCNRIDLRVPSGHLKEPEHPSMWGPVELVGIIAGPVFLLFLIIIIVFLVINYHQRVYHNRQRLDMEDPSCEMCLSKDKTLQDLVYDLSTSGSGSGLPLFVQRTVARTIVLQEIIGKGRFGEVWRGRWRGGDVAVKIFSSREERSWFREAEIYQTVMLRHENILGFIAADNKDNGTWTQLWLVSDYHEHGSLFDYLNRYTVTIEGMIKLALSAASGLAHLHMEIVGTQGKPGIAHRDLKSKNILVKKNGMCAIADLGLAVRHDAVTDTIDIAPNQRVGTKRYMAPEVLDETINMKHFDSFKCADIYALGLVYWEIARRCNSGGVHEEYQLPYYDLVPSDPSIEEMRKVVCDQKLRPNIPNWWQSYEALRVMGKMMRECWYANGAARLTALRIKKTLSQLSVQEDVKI", "assay": "radiometric protein kinase assay, ALK4", "format": "biochemical", "conditions": "[ATP] = 1 μM; Fig. 7C", "procedure": "(§1) IC50 values were calculated using Prism 5.04 for Windows (GraphPad, San Diego, CA, USA; www.graphpad.com). The mathematical model used was ‘Sigmoidal response (variable slope)’ with parameters ‘top’ fixed at 100% and ‘bottom’ at 0%. The fitting method used was a least-squares fit."}, "ACV-R1 (ALK2)": {"molecular_target": "T3, ACV-R1 (ALK2) (Homo sapiens, UniProt Q04771)", "T3 construct": "purchased ProQinase GmbH (Freiburg, Germany); host or cells: bacteria (so in the source)", "T3 sequence (Q04771 21-509)": "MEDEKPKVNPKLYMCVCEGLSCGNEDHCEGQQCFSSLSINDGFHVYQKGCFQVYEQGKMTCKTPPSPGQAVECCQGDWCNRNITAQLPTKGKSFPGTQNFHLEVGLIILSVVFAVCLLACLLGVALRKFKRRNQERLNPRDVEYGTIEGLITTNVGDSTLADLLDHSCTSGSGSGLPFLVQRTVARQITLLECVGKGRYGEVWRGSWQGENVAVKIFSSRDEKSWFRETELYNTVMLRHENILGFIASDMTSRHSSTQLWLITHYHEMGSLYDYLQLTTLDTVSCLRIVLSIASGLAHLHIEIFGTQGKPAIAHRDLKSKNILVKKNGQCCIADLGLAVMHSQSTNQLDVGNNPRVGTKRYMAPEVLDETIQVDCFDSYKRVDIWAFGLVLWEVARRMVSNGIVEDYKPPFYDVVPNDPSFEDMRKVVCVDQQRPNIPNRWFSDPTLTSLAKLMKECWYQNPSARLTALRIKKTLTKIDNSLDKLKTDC", "assay": "radiometric protein kinase assay, ALK2", "format": "biochemical", "conditions": "[ATP] = 3 μM; Fig. 7B", "procedure": "as §1"}}, "note": "“And” between values parts separate entries of the source, which are not always exact repeats. Equal entries are not always repeated. “Also recorded” adds a separate entry of the source."}
{"smiles": "CC(=O)C1=C(O)C=C2Oc3c(C(N)=O)c(O)cc(O)c3[C@]2(C)C1=O", "note": "[cercosporamide, Cercosporamide]", "values": [{"measurement": "effect on caALK5-induced SMAD1/5 phosphorylation", "setting": "caALK5", "value": "not inhibited; also recorded: only weakly inhibited"}, {"measurement": "krox20 expression pattern", "setting": "zebrafish embryos", "value": "induced lateral expression of krox20"}, {"measurement": "fraction of embryos showing the pattern", "setting": "zebrafish embryos; one fraction per depicted pattern", "value": "7/15 and 6/15 and 2/15"}, {"measurement": "caAlk2-injected embryos that developed a head with eyes", "setting": "caAlk2; 100 nM from 2 hpf onwards", "value": 58, "unit": "%"}, {"measurement": "caAlk2-injected embryos that developed a head with eyes", "setting": "caAlk2; 200 nM from 2 hpf onwards", "value": 86, "unit": "%"}, {"measurement": "IC50", "setting": "ACV-R1B (ALK4)", "value": 0.15, "unit": "µM"}, {"measurement": "IC50", "setting": "ACV-R1 (ALK2)", "value": 0.6, "unit": "µM"}]}
